This passage reports EC50 and S/L results from patent publication US4613608A (priority 1982, dated 1986).

Assay [1] relates to small coronary artery. Put plainly: tissue or blood. The format is cell-based, dogs. As to conditions: Canis lupus familiaris, read-out: ED50 Small (S).
The subject of assay [2] is large coronary artery. Put plainly: tissue or blood. Format: cell-based, dogs. The following applies: for EC50: Canis lupus familiaris, read-out: ED50 Large (L); for S/L: dog, coronary artery strips.

Converted amounts (≈) assume the structure as drawn. Some results are limits rather than exact numbers.

For `O=[N+]([O-])OCc1cccnc1` [Compound A, 3-Nitroxymethylpyridine, reference compound], the EC50 in assay [1] was determined as 1.9 µg/mL (≈ 12.3 µM). Also, in assay [2], the EC50 turned out to be 0.08 µg/mL (≈ 0.519 µM) and the S/L is reported as 23.8.
`O=[N+]([O-])OCCCc1ccncc1` [Compound C, 4-(3-Nitroxypropyl)pyridine]: the EC50 in assay [1] is greater than 10 µg/mL. Moreover, in assay [2], the EC50 was determined as 0.0125 µg/mL (≈ 0.0686 µM) and the S/L is on record as greater than 800.
On the same counts, the results for `O=[N+]([O-])OCc1cccc(Cl)n1` [Compound D, 2-Nitroxymethyl-6-chloropyridine] are 6.2 µg/mL (≈ 32.9 µM), 0.0067 µg/mL (≈ 0.0355 µM) and 925.
